What is called NOAEL is the highest dose or exposure tested at which no adverse effect was seen. The term AUC denotes concentration integrated over time. A word on the Cmax: it is the peak of the concentration-time curve. What is called Ki is a measure of affinity in units of concentration, obtained from inhibition or displacement. What is called AUC(0-t) is exposure summed from dosing to a finite time, without extrapolation to infinity. A higher AUC(0-t) goes with high exposure. As usually defined, the clearance is the volume of plasma or blood freed of the substance per unit of time. A higher clearance goes with efficient removal. Broadly, the half-life is the time needed for the level to fall by half in the phase considered. One may read the bioavailability as the share of a dose that reaches the circulation, judged against a reference dose that is usually intravenous.

Data on 1 compound can be found in patent US10973831B2, “Fluoropiperidine compounds as pure 5-HT 6 receptor antagonists” (SUVEN LIFE SCIENCES LIMITED, priority 2017, dated 2021).

The nature of data set [1]: Non-clinical toxicology, repeated dose toxicity study in rat. The class given is in vivo. Conditions: rat, female rats. The procedure: (§1) The safety of the example 1 of instant invention and comparator example of U.S. Pat. No. 7,378,415 were evaluated in repeated dose toxicity study in rat.
(§2) Female rats were used as experimental animals for evaluating the toxicity profile of example 1 of instant invention and the comparator example of U.S. Pat. No. 7,378,415.
(§3) During the study, female rats were dosed at incremental doses for minimum of 4 days. Toxicity assessment was done on the mortality, clinical observation, change in the body weight, feed consumption, clinical and anatomical pathology. Systemic exposures were also estimated for both of the compounds. All quantitative variables are compared with control group using one-way ANOVA followed by Dunnet's post-hoc test on GraphPad Prism Software version 4, 2003.

Data set [2] concerns Female rats. The description is as above. Format: in vivo. Conditions: repeated dose toxicity. How it is done: as §1, §2, §3
Data set [3] addresses T1, recombinant human 5-HT6 receptor (Homo sapiens, UniProt P50406).
T1 construct: expressed in transfected cells
The data set is described as follows: Determination of Kb for 5-HT6 receptor (CHO cells, pCRE-Luc reporter, cAMP). Conditions: 10 μM serotonin, luciferase reporter. Format: cell-based. How it is done:
Determination of Kb for 5-HT6 Receptor: A stable CHO cell line expressing recombinant human 5-HT6 receptor and pCRE-Luc reporter system was used for cell based assay. The assay offers a non-radioactive based approach to determine binding of a compound to GPCRs. In this specific assay, the level of intracellular cyclic AMP which is modulated by activation or inhibition of the receptor is measured. The recombinant cells harbor luciferase reporter gene under the control of cAMP response element. The above cells were plated in 96 well clear bottom white plates at a density of 5×10^4 cells/well using Hams F12 medium containing 10% fetal bovine serum (FBS) and incubated overnight at 37° C. and 5% CO2 followed by serum starvation for 18-20 hrs. Increasing concentrations of test compounds were added along with 10 μM serotonin in Opti-MEM to the cells. The incubation was continued at 37° C. in CO2 incubator for 4 hours. After 4 hours cells were lysed using lysis buffer and luciferase assay buffer was added to each well and counts per second were recorded using luminescence counter. From counts per second (CPS) obtained, percent binding was calculated for each well by taking 10 μM 5-HT as 100% bound and vehicle as 0% bound. The percent bound values were plotted against compound concentrations and data were analyzed using a nonlinear, iterative curve-fitting computer program of Graph pad Prism 4 software. The Kb values were calculated using concentration of the agonist used in the assay.
(In general: A reporter such as luciferase makes a cellular process visible.)

In data set [4] the target is T2, recombinant human 5-HT2A (Homo sapiens, UniProt P28223).
T2 construct: purchased Perkin Elmer ES-313-M400UA
In words: Determination of 5-HT2A binding ([3H]-Ketanserin radioligand, membranes). Conditions: human 5-HT2A membranes, [3H]-Ketanserin 1.75 nM. How it is done: Membrane preparation from recombinant human 5-HT2A cell line (Cat no. ES-313-M400UA) and radio ligand Ketanserin Hydrochloride, [Ethylene-^3H]-(R-41468) (Cat no. NET791250UC) were purchased from Perkin Elmer. All other reagents used in buffer preparation were purchased from Sigma. The final ligand concentration was 1.75 nM; non-specific determinant was 1-NP [10 μM] and 5-HT2A membrane protein (5 μg/well). 1-NP was used as a positive control. Reactions were carried out in 67 mM Tris pH 7.6 containing 0.5 mM EDTA buffer for 60 minutes at 25° C. Reaction was stopped by rapid filtration followed by six washes of the binding mixture using 96 well harvest plate (Millipore Cat no. MSFBNXB50) pre coated with 0.33% polyethyleneimine. The plate was dried and the bound radioactivity collected on the filters was determined by scintillation counting using MicroBeta TriLux. Radio ligand binding in the presence of non-labeled compound was expressed as a percent of the total binding and plotted against the log concentration of the compound. Ki values were determined using a nonlinear, iterative curve-fitting computer program of Graph pad Prism 4 software.

Data set [5] is described as follows: Rodent pharmacokinetic study. Format: in vivo, male Wistar rats. Conditions: male, Wistar, plasma, rat. How it is done: Male Wistar rats (260±50 grams) were used as experimental animals. Animals were housed individually in polypropylene cage. Two days prior to study, male Wistar rats were anesthetized with isoflurane for surgical placement of jugular vein catheter. Rats were randomly divided for oral (3 mg/kg) and intravenous (1 mg/kg) dosing (n=3/group) and fasted overnight before oral dosing (p.o.). However, rats allocated to intravenous dosing food and water was provided ad libitum.
At pre-determined point, blood was collected through jugular vein and replenished with an equivalent volume of normal saline. Collected blood was transferred into a labeled eppendorf tube containing 10 μL, of heparin as an anticoagulant. Typically blood samples were collected at following time points: 0.08, 0.25, 0.5, 1, 2, 4, 6, 8, and 24 hours post dose. Blood was centrifuged at 4000 rpm for 10 minutes. Plasma was separated and stored frozen at −80° C. until analysis. The concentrations of the test compounds were quantified in plasma by qualified LC-MS/MS method using suitable extraction technique. The test compounds were quantified in the calibration range around 1-1000 ng/mL in plasma. Study samples were analyzed using calibration samples in the batch and quality control samples spread across the batch.
Pharmacokinetic parameters Cmax, AUC1, T1/2, Clearance and Bioavailability (F) were calculated by non-compartmental model using standard non-compartmental model by using Phoenix WinNonlin 6.2 or 6.4 version Software package.

Data set [6] can be described thus: Rodent brain penetration study. Format: in vivo, male Wistar rats. Conditions: male, Wistar, brain and plasma, po; rat, 3 mg/kg, p.o., brain-plasma ratio; read-out: Single dose rat brain penetration (Cb/Cp). The procedure:
Male Wistar rats (260±40 grams) were used as experimental animals. Three animals were housed in each cage. Animals were given water and food ad libitum throughout the experiment and maintained on a 12 hours light/dark cycle.
Brain penetration was determined in discrete manner in rats. One day prior to dosing day, male Wistar rats were acclimatized and randomly grouped according to their weight. At each time point (0.50, 1 and 2 hours) n=3 animals were used.
The test compounds were suitably preformulated and administered orally at (free base equivalent) 3 mg/kg. Blood samples were collected via cardiac puncture by using isoflurane anesthesia. The animals were sacrificed to collect brain tissue. Plasma was separated and brain samples were homogenized and stored frozen at −20° C. until analysis. The concentrations of the test compounds in plasma and brain were determined using LC-MS/MS method.
The test compounds were quantified in plasma and brain homogenate by qualified LC-MS/MS method using suitable extraction technique. The test compounds were quantified in the calibration range of 1-1000 ng/mL in plasma and brain homogenate. Study samples were analyzed using calibration samples in the batch and quality control samples spread across the batch. Extent of brain-plasma ratio (Cb/Cp) was calculated.

T1 sequence (P50406 whole entry): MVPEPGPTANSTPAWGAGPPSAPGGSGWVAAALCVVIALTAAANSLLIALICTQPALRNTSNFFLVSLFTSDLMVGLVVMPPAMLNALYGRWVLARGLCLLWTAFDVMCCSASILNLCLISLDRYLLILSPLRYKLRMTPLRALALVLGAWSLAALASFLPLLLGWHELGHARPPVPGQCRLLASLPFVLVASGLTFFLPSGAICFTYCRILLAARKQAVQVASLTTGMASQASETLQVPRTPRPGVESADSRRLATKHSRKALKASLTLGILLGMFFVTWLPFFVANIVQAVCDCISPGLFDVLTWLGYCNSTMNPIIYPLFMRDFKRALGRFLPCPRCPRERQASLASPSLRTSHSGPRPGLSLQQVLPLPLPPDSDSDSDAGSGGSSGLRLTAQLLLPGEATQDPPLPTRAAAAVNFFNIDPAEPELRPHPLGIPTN
T2 sequence (P28223 whole entry): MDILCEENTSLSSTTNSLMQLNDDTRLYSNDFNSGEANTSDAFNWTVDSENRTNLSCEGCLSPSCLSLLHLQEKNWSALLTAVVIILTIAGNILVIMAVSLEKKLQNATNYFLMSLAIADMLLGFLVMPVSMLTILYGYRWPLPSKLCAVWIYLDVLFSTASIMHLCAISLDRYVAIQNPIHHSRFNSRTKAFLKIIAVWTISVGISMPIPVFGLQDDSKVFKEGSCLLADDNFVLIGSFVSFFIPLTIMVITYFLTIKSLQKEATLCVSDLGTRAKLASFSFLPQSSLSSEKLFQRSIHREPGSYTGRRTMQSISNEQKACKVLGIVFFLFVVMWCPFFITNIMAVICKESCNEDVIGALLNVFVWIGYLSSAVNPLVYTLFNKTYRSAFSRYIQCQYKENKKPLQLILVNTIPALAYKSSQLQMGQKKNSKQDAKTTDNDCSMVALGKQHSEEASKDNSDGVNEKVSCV

The compound `Cl.O=S(=O)(c1ccccc1)c1ccc2c(c1)OCCN2C1CCNCC1F` (single isomer, unassigned; peak iii) [Example 1, 7-Phenylsulfonyl-4-(3-fluoropiperidin-4-yl)-3,4-dihydro-2H-benzo[1,4]oxazine hydrochloride (Peak III)] yielded a no-observed-adverse-effect level (NOAEL) at 4 days in data set [1] (in vivo, 4-Day repeat tox) of 300 mg/kg. Also, the MTD in data set [1] (in vivo, repeated incremental doses, read-out: Maximum Tolerated Dose) is no less than 300 mg/kg. Further, the AUC in data set [1] (plasma, repeated dose toxicity study, read-out: AUC (systemic exposure in toxicity study)) stood at 38100 ng·h/mL. Besides, the peak concentration (Cmax) in data set [1] (plasma, repeated dose toxicity study, read-out: Cmax (systemic exposure in toxicity study)) turned out to be 2420 ng/mL. Further, the “Findings (mortality)” value in data set [2] is listed as “No death up”. Besides, in data set [2] (listed as example 1), the “Findings (mortality)” value is “no deaths were observed at doses as high as 300 mg/kg”. Moreover, the Kb in data set [3] was found to be 0.04 nM. In addition, the Ki in data set [4] worked out at 130 nM. In data set [5] (intravenous (bolus), 1 mg/kg), the AUC(0-t) was found to be 412 ± 37 ng·h/mL, the clearance was found to be 40 ± 3 mL/min/kg and the half-life was 4.5 ± 0.1 h. Further, the bioavailability in data set [5] (oral (gavage) 3 mg/kg vs intravenous 1 mg/kg, read-out: F (Bioavailability)) was found to be 81 ± 1%. In data set [5] (oral (gavage), 3 mg/kg), this compound gave an AUC(0-t) of 1000 ± 15 ng·h/mL, a Cmax of 84 ± 14 ng/mL and a half-life of 5.6 ± 0.9 h. Also, the Kp in data set [6] came to 0.78 ± 0.2.
